The Kinase Knowledgebase extract (Sharma et al. 2016)

Assays:
MAPK14 (human) [1] = molecular target: MAPK14 (human) (UniProt Q16539); test: Inhibition of TNF-alpha Release in LPS Stimulated Whole Blood Cells
MAPK14 (human) [2] = molecular target: MAPK14 (human) (UniProt Q16539); test: Inhibition of IL-1beta Production in LPS Stimulated PBMC
MAPK14 (human) [3] = molecular target: MAPK14 (human) (UniProt Q16539); test: Inhibition of MAPK14 Kinase Activity
MAPK14 (human) [4] = molecular target: MAPK14 (human) (UniProt Q16539); test: Inhibition of IL-6 Release in LPS Stimulated Whole Blood Cells
MAPK14 (human) [5] = molecular target: MAPK14 (human) (UniProt Q16539); test: Inhibition of IL-1 beta Release in LPS Stimulated Whole Blood Cells
MAPK14 (human) [6] = molecular target: MAPK14 (human) (UniProt Q16539); test: Inhibition of TNF-alpha Production in LPS Stimulated PBMC

MAPK14 (human), sequence (Q16539 whole entry, looked up): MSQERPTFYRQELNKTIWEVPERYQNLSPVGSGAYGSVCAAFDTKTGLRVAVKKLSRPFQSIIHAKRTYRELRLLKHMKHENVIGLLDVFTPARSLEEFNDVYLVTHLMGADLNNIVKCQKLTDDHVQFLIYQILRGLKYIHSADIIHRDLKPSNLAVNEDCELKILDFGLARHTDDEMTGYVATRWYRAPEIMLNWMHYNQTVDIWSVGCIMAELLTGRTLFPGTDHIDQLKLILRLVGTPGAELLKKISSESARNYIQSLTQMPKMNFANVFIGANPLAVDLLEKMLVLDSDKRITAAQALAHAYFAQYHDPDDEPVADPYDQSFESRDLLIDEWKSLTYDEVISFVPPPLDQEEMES

Row | IC50 (MAPK14 (human) [1]) [nM] | IC50 (MAPK14 (human) [2]) [nM] | IC50 (MAPK14 (human) [3]) [nM] | IC50 (MAPK14 (human) [4]) [nM] | IC50 (MAPK14 (human) [5]) [nM] | IC50 (MAPK14 (human) [6]) [nM] | Structure (SMILES)
1 | 20000 | 50 | 1000 | 11000 | 12200 | 50 | CN(C)C=NC(=O)OCc1ccc(N(C(N)=O)c2c(F)cccc2F)nc1-c1ccc(F)cc1F
2 | 55 | 12 | 31 | 83 | 140 | 22 | CC(C)[C@H](N)C(=O)OCCNC(=O)OCc1ccc(N(C(N)=O)c2c(F)cccc2F)nc1-c1ccc(F)cc1F
3 | 4300 |  | 5000 | 800 | 2200 |  | CN(C)C=NC(=O)OCc1ccc(N(C(=O)N=CN(C)C)c2c(F)cccc2F)nc1-c1ccc(F)cc1F
